According to patent US20210302113A1, “FLUORINATED DIAMINOOLEFINS AND METHODS OF USING THE SAME” (3M INNOVATIVE PROPERTIES COMPANY, priority 2017, published 2021):

Assay: Thermal stability with absorbents, GC-FID purity after stirring at 60° C. for 24 h
Assay type: physicochemical
Protocol: The thermal stability was measured by charging a weighed amount of (E)-1,4-bis(perfluoromorpholino)but-2-ene (having a purity of 98.8%) into glass vials and then adding a weighed amount of absorbent. (The purity of the composition was measured by analyzing the sample using GC-FID and comparing the area of the peak of interest to the total peak areas in the chromatogram.) The mixture was stirred at 60° C. for 24 h and then analyzed by GC-FID. The percent purity of the treated sample was determined by the peak area of the (E)-1,4-bis(perfluoromorpholino)but-2-ene peak versus the total peak areas in the GC-FID chromatogram.

For `FC1(F)OC(F)(F)C(F)(F)N(C/C=C/CN2C(F)(F)C(F)(F)OC(F)(F)C2(F)F)C1(F)F` [(E)-1,4-bis(perfluoromorpholino)but-2-ene], the “GC Purity” value (4 Angstrom Molecular Sieves, starting purity 98.8%) was 98.8%, the “GC Purity” value (Activated Carbon, starting purity 98.8%) was 98.8% and the “GC Purity” value (Basic Alumina, starting purity 98.8%) was 99.5%. The “GC Purity” value (K2CO3, starting purity 98.8%) was 98.9%, the “GC Purity” value (No Adsorbent, starting purity 98.8%) was 98.8% and the “GC Purity” value (Silica Gel, starting purity 98.8%) was 98.8%.
